Reference: patent US12697343B2, “Intravenous istaroxime for the treatment of acute heart failure” (Seismic Pharmaceuticals Operations LLC, priority 2021, dated 2026)
Counter-ions that a name gives are not always drawn.

Test system: patients hospitalized for acute heart failure (AHF)
Assay: Echocardiographic parameters (tissue Doppler echocardiography), phase II trial of 24 h istaroxime infusion
Assay type: in vivo, human
Conditions: for A wave mean change from baseline / CI mean change from baseline / E wave mean change from baseline / E/A ratio mean change from baseline / E/e′ ratio mean change from baseline / EDV Index mean change from baseline / EDV mean change from baseline / ESV Index mean change from baseline / ESV mean change from baseline / IVC diameter mean change from baseline / LAA mean change from baseline / LAV mean change from baseline / LAVI mean change from baseline / LVEF mean change from baseline / PASP mean change from baseline / SVI mean change from baseline / S′ mean change from baseline / TAPSE mean change from baseline / e′ mean change from baseline: 0.5 μg/Kg/min; for E/e′ change from baseline to 24 h (primary endpoint): 0.5 μg/kg/min (cohort 1), mITT, hydrochloride
From the text: The measurement of one or more cardiac parameters disclosed herein can be measured by Echocardiography which may be performed on subjects according to international standards (see, for example, Lang R M et a I. J Am Soc Echocardiogr 2005; 18(12): 1440-63; Nagueh S F et al. Eur J Echocardiogr 2009; 10(2): 165-93; Evangelista A et a I. Eur J Echocardiogr 2008; 9(4):438-48).
In some embodiments, cardiac parameters can be measured as follows: • 1. Cardiac dimension measures: • a. Left ventricle end diastolic diameter (EDD): measured with M-mode echocardiography at the level of mitral valve (MV) leaflets from parasternal long axis view (PLAX) (normal range [N R]: 42-59 mm males and 39-53 mm females); • b. Left ventricle end systolic diameter (ESD): measured with M-mode echocardiography at the level of mitral valve (MV) leaflets from PLAX (N R: 25-35 mm): • c. Left ventricle end diastolic volume (EDV): measured with M-mode echocardiography at the level of mitral valve (MV) leaflets from PLAX (N R: 67-155 mL males and 56-104 mL females); • d. Left ventricle end systolic volume (ESV): measured with M-mode echocardiography at the level of mitral valve (MV) leaflets from PLAX (N R: 22-58 mL males and 19-49 mL females); • e. Left atrium diameter (LAD): measured at end-ventricular systole with M-mode echocardiography from PLAX. (N R: 30-40 mm males and 27-38 mm females) • f. Left atrium area (LAA): measured from apical four chamber view (NR: £20 cm2); and • g. Left atrium volume (LAV): derived from area-length measured from apical four chamber view (N R: 18-58 mL males and 22-52 mL females). • 2. Left ventricle diastolic function parameters: • a. E wave: measured from mitral valve pulsed wave Doppler, is the peak velocity of early filling. […] A wave: measured from mitral valve pulsed wave Doppler is the peak velocity of late atrial filling. Not evaluable in subjects with AF: • c. E wave deceleration time (EDT): measured from mitral valve pulsed wave Doppler represent the slope of the descending part of E wave; • d. E/A ratio: determines the type of diastolic filling pattern (normal E/A=1-2 and EDT=150-200 ms, abnormal relaxation E/A<1 and EDT>240 ms, pseudonormal E/A=0.8-1.5: restrictive E/A^32 and EDT <160 ms). Not evaluable in subjects with AF; • e. Ea: measured with tissue Doppler method at the lateral and septal side of the mitral annulus from apical four chamber view is the early diastolic velocity. The value has been calculated as the average between Ea lateral and Ea septal. (NR310 cm/s) (see Nagueh S F et al. Eur J Echocardiogr. 2009:10(2):165-93); • f. Aa: measured with tissue Doppler method at the lateral and septal side of the mitral annulus from apical four chamber view is the late atrial diastolic velocity. The value has been calculated as the average between Aa lateral and Aa septal. Not evaluable in subjects with AF; and • g. E/Ea ratio: this is a derived measure from E and Ea value. This is highly correlated with left ventricle filling pressure and with prognosis in subjects with HF. (NR: <13) (see Nagueh S F et al. supra). • 3. Left ventricle systolic function parameters: • a. Left ventricle ejection fraction (LVEF): measured with Simpson biplane method according to international recommendations from apical four chamber view and apical two chamber view. (NR ^355%) (see Lang R M et al. J Am Soc Echocardiogr. 2005:18(12): 1440-63); and • b. Sa: measured with tissue Doppler method at the lateral and septal side of the mitral annulus from apical four chamber view. The value has been calculated as the average between Sa lateral and Sa septal. […] Overall cardiac contraction parameters: • a. Stroke volume (SV): is a derived measure obtained with the application of Bernoulli's formula using the dimension of left ventricle outflow tract (LVOT) as diameter and LVOT time velocity integral as velocity. (NR>60 mL/beat); • b. Cardiac output (CO): is derived by the multiplication of SV× heart rate (HR) (NR: >4 L/min); • c. […]

[1] = 0.5 μg/kg/min, mean ± standard deviation

## C[C@]12CCC(=NOCCN)C[C@@H]1C(=O)C[C@@H]1[C@@H]2CC[C@]2(C)C(=O)CC[C@@H]12 [Istaroxime, (E,Z)-3-((2-aminoethoxy)imino)androstane-6,17-dione hydrochloride]
6 hours
  A wave mean change from baseline: 1.76 cm/s
  CI mean change from baseline: 0.20 l/min/m^2
  E wave mean change from baseline: -4.35 cm/s
  E/A ratio mean change from baseline: −0.28
  E/e′ ratio mean change from baseline: −3.48
  EDV Index mean change from baseline: 0.85 ml/m^2
  EDV mean change from baseline: 1.47 mL
  ESV Index mean change from baseline: −2.54 ml/m^2
  ESV mean change from baseline: -4.89 mL
  IVC diameter mean change from baseline: −2.41 mm
  LAA mean change from baseline: −0.38 cm^2
  LAV mean change from baseline: 0.05 mL
  LAVI mean change from baseline: −0.51 mL/m^2
  LVEF mean change from baseline: 2.03%
  PASP mean change from baseline: −4.21 mmHg
  SVI mean change from baseline: 5.66 ml/beat/m^2
  S′ mean change from baseline: 0.63 cm/s
  TAPSE mean change from baseline: 0.41 mm
  e′ mean change from baseline: 0.63 cm/s
24 hours
  A wave mean change from baseline: 5.13 cm/s
  CI mean change from baseline: 0.27 l/min/m^2
  E wave mean change from baseline: -8.14 cm/s
  E/A ratio mean change from baseline: −0.64
  E/e′ ratio mean change from baseline: −4.55
  EDV Index mean change from baseline: −0.20 ml/m^2
  EDV mean change from baseline: -0.71 mL
  ESV Index mean change from baseline: −3.78 ml/m^2
  ESV mean change from baseline: -7.11 mL
  IVC diameter mean change from baseline: −4.30 mm
  LAA mean change from baseline: −1.70 cm^2
  LAV mean change from baseline: -7.94 mL
  LAVI mean change from baseline: −4.32 mL/m^2
  LVEF mean change from baseline: 3.03%
  PASP mean change from baseline: −10.89 mmHg
  SVI mean change from baseline: 5.33 ml/beat/m^2
  S′ mean change from baseline: 0.68 cm/s
  TAPSE mean change from baseline: 0.73 mm
  e′ mean change from baseline: 0.94 cm/s
48 hours
  A wave mean change from baseline: -0.94 cm/s
  CI mean change from baseline: 0.19 l/min/m^2
  E wave mean change from baseline: -5.21 cm/s
  E/A ratio mean change from baseline: −0.28
  E/e′ ratio mean change from baseline: −2.56
  EDV Index mean change from baseline: −0.07 ml/m^2
  EDV mean change from baseline: -0.59 mL
  ESV Index mean change from baseline: −1.19 ml/m^2
  ESV mean change from baseline: -2.57 mL
  IVC diameter mean change from baseline: −4.16 mm
  LAA mean change from baseline: −2.01 cm^2
  LAV mean change from baseline: -9.17 mL
  LAVI mean change from baseline: −5.01 mL/m^2
  LVEF mean change from baseline: 1.19%
  PASP mean change from baseline: −11.18 mmHg
  SVI mean change from baseline: 3.68 ml/beat/m^2
  S′ mean change from baseline: 0.22 cm/s
  TAPSE mean change from baseline: −0.34 mm
  e′ mean change from baseline: 0.32 cm/s
Mean ± standard deviation
  E/e′ change from baseline to 24 h (primary endpoint): −4.55 ± 4.75
Mean ± standard deviation, listed as istaroxime
  E/e′ change from baseline to 24 h (primary endpoint): −4.55±4.75
[1]
  E/A ratio change at 24 h: −0.64 ± 0.79
  LV ejection fraction change at 24 h: 3.03 ± 4.04%
  LV end-diastolic volume index change at 24 h: −0.20 ± 5.45 mL/m^2
  LV end-systolic volume index change at 24 h: −3.78 ± 6.76 mL/m^2
  Left atrial area change at 24 h: −1.70 ± 2.46 cm^2
  Left atrial volume index change at 24 h: −4.32 ± 7.28 mL/m^2
  Stroke volume index change at 24 h: 5.33 ± 6.67 mL/beat/m^2
  S′ change at 24 h: 0.68 ± 0.91 cm/s
